Data published in publication PMC9516332 (Frontiers in Oncology, 2022).
Where two headings read alike, the source gives them in different places.

Test system: 134 cancer cell lines
Test: Cell viability assay (ATPlite, 72 hours), IC50 on cancer cell line panel

Compound `CC(C)(C)c1nc(-c2cccc(NS(=O)(=O)c3c(F)cccc3F)c2F)c(-c2ccnc(N)n2)s1` [dabrafenib] has an IC50 (HEC-6, read-out: IC50 in cell proliferation assay, HEC-6 cell line (EGFR p.A289V)) greater than 10000 nM, an IC50 (Homo sapiens, 769-P, read-out: IC50 in cell proliferation assay, cell line 769-P) of 1050 nM and an IC50 (Homo sapiens, 786-0, read-out: IC50 in cell proliferation assay, cell line 786-O) of 1680 nM. It also gave an IC50 (Homo sapiens, A 172, read-out: IC50 in cell proliferation assay, cell line A-172) greater than 10000 nM, an IC50 (Homo sapiens, A204, read-out: IC50 in cell proliferation assay, cell line A-204) of 2000 nM and an IC50 (Homo sapiens, A498, read-out: IC50 in cell proliferation assay, cell line A-498) of 750 nM. It also gave an IC50 (Homo sapiens, A549, read-out: IC50 in cell proliferation assay, cell line A-549) of 2650 nM, an IC50 (Homo sapiens, A704, read-out: IC50 in cell proliferation assay, cell line A-704) of 822 nM and an IC50 (Homo sapiens, A-375, read-out: IC50 in cell proliferation assay, cell line A-375 (BRAF p.V600E)) of 71 nM. For the same compound, the IC50 (Homo sapiens, A-427, read-out: IC50 in cell proliferation assay, cell line A-427) was 2240 nM, the IC50 (Homo sapiens, ACHN, read-out: IC50 in cell proliferation assay, cell line ACHN) was 598 nM and the IC50 (Homo sapiens, AN3-CA, read-out: IC50 in cell proliferation assay, cell line AN3-CA (FGFR2 p.N549K)) was 2620 nM. The IC50 (Homo sapiens, ASPC1, read-out: IC50 in cell proliferation assay, cell line AsPC-1) was greater than 10000 nM, the IC50 (Homo sapiens, AU565, read-out: IC50 in cell proliferation assay, cell line AU565 (ERBB2 amplification)) was 981 nM and the IC50 (Homo sapiens, BT-20, read-out: IC50 in cell proliferation assay, cell line BT-20) was greater than 10000 nM. It also gave an IC50 (Homo sapiens, BT-474, read-out: IC50 in cell proliferation assay, cell line BT-474 (ERBB2 amplification)) greater than 10000 nM, an IC50 (Homo sapiens, BT-549, read-out: IC50 in cell proliferation assay, cell line BT-549) of 1530 nM and an IC50 (Homo sapiens, BXPC-3, read-out: IC50 in cell proliferation assay, cell line BxPC-3) of 681 nM. For the same compound, the IC50 (Homo sapiens, C-33-A, read-out: IC50 in cell proliferation assay, cell line C-33 A) was greater than 10000 nM, the IC50 (Homo sapiens, CAL-27, read-out: IC50 in cell proliferation assay, cell line CAL-27) was greater than 10000 nM and the IC50 (Homo sapiens, CCF-STTG1, read-out: IC50 in cell proliferation assay, cell line CCF-STTG1) was greater than 10000 nM. For the same compound, the IC50 (Homo sapiens, CCRF-CEM, read-out: IC50 in cell proliferation assay, cell line CCRF-CEM) was 1590 nM, the IC50 (Homo sapiens, COLO 205, read-out: IC50 in cell proliferation assay, cell line COLO 205 (BRAF p.V600E)) was 17 nM and the IC50 (Homo sapiens, COLO-829, read-out: IC50 in cell proliferation assay, cell line COLO 829 (BRAF p.V600E)) was 44 nM. It also gave an IC50 (Homo sapiens, DLD-1, read-out: IC50 in cell proliferation assay, cell line DLD-1) of 1070 nM, an IC50 (Homo sapiens, DU-4475, read-out: IC50 in cell proliferation assay, cell line DU4475 (BRAF p.V600E)) of 55 nM and an IC50 (Homo sapiens, Daoy, read-out: IC50 in cell proliferation assay, cell line Daoy) of 919 nM. The IC50 (Homo sapiens, DoTc2-4510, read-out: IC50 in cell proliferation assay, cell line DoTc2 4510) was greater than 10000 nM, the IC50 (Homo sapiens, EOL1, read-out: IC50 in cell proliferation assay, cell line EoL-1 (FIP1L1-PDGFRA)) was 2680 nM and the IC50 (Homo sapiens, FaDu, read-out: IC50 in cell proliferation assay, cell line FaDu) was 2630 nM. It also gave an IC50 (Homo sapiens, G-361, read-out: IC50 in cell proliferation assay, cell line G-361 (BRAF p.V600E)) of 47 nM, an IC50 (Homo sapiens, HCC827, read-out: IC50 in cell proliferation assay, cell line HCC827 (EGFR exon19del)) of 1270 nM and an IC50 (Homo sapiens, HCC4006, read-out: IC50 in cell proliferation assay, cell line HCC4006 (EGFR exon19del)) greater than 10000 nM. It also gave an IC50 (Homo sapiens, HCT-15, read-out: IC50 in cell proliferation assay, cell line HCT 15) of 1520 nM, an IC50 (Homo sapiens, HCT-116, read-out: IC50 in cell proliferation assay, cell line HCT 116) of 1110 nM and an IC50 (Homo sapiens, HEC-1, read-out: IC50 in cell proliferation assay, HEC-1 cell line) of 1260 nM. For the same compound, the IC50 (Homo sapiens, HEC-1B, read-out: IC50 in cell proliferation assay, HEC-1-B cell line (EGFR p.A864V)) was greater than 10000 nM, the IC50 (Homo sapiens, HL-60, read-out: IC50 in cell proliferation assay, HL-60 cell line) was greater than 10000 nM and the IC50 (Homo sapiens, HT, read-out: IC50 in cell proliferation assay, HT cell line) was greater than 10000 nM. For the same compound, the IC50 (Homo sapiens, HT-1080, read-out: IC50 in cell proliferation assay, HT-1080 cell line) was 971 nM, the IC50 (Homo sapiens, Hs746T, read-out: IC50 in cell proliferation assay, Hs 746.T cell line (MET exon14skip + amplification)) was greater than 10000 nM and the IC50 (Homo sapiens, Hs-578T, read-out: IC50 in cell proliferation assay, Hs 578T cell line) was 1110 nM. The IC50 (Homo sapiens, HuTu80, read-out: IC50 in cell proliferation assay, HuTu 80 cell line) was 2990 nM, the IC50 (Homo sapiens, J82, read-out: IC50 in cell proliferation assay, J82 cell line) was greater than 10000 nM and the IC50 (Homo sapiens, Jurkat E6.1, read-out: IC50 in cell proliferation assay, Jurkat E6.1 cell line) was 1300 nM. The IC50 (Homo sapiens, K562, read-out: IC50 in cell proliferation assay, K-562 cell line) was greater than 10000 nM, the IC50 (Homo sapiens, KATO III, read-out: IC50 in cell proliferation assay, KATO III cell line (FGFR2 amplification)) was 1770 nM and the IC50 (Homo sapiens, KG-1, read-out: IC50 in cell proliferation assay, KG-1 cell line (FGFR1OP2-FGFR1)) was 1210 nM. The IC50 (Homo sapiens, KLE, read-out: IC50 in cell proliferation assay, KLE cell line) was 1560 nM, the IC50 (Homo sapiens, KMS-11, read-out: IC50 in cell proliferation assay, KMS-11 cell line (FGFR3 p.Y373C)) was greater than 10000 nM and the IC50 (Homo sapiens, KU812, read-out: IC50 in cell proliferation assay, Ku812 cell line) was 8650 nM. For the same compound, the IC50 (Homo sapiens, Kasumi 1, read-out: IC50 in cell proliferation assay, Kasumi-1 cell line (KIT p.N822K)) was 9050 nM, the IC50 (Homo sapiens, LC-2-ad, read-out: IC50 in cell proliferation assay, LC-2/ad cell line (CCDC6-RET)) was 2070 nM and the IC50 (Homo sapiens, LNCaP-Clone-FGC, read-out: IC50 in cell proliferation assay, LNCaP clone FGC cell line) was 2730 nM. For the same compound, the IC50 (Homo sapiens, LS174T, read-out: IC50 in cell proliferation assay, LS174T cell line) was greater than 10000 nM, the IC50 (Homo sapiens, LS-411N, read-out: IC50 in cell proliferation assay, LS411N cell line (BRAF p.V600E)) was 22 nM and the IC50 (Homo sapiens, LoVo, read-out: IC50 in cell proliferation assay, LoVo cell line) was 4360 nM. It also gave an IC50 (Homo sapiens, MCF7, read-out: IC50 in cell proliferation assay, MCF-7 cell line) greater than 10000 nM, an IC50 (Homo sapiens, MDA-MB-231, read-out: IC50 in cell proliferation assay, MDA-MB-231 cell line) greater than 10000 nM and an IC50 (Homo sapiens, MDA-MB-453, read-out: IC50 in cell proliferation assay, MDA-MB-453 cell line) greater than 10000 nM. For the same compound, the IC50 (Homo sapiens, MDA-MB-468, read-out: IC50 in cell proliferation assay, MDA-MB-468 cell line) was greater than 10000 nM, the IC50 (Homo sapiens, MG-63, read-out: IC50 in cell proliferation assay, MG-63 cell line) was greater than 10000 nM and the IC50 (Homo sapiens, MIA PaCa-2, read-out: IC50 in cell proliferation assay, MIA PaCa-2 cell line) was greater than 10000 nM. For the same compound, the IC50 (Homo sapiens, MKN-45, read-out: IC50 in cell proliferation assay, MKN45 cell line (MET amplification)) was greater than 10000 nM, the IC50 (Homo sapiens, MOLM-13, read-out: IC50 in cell proliferation assay, MOLM-13 cell line (FLT3 ITD)) was 5700 nM and the IC50 (Homo sapiens, MOLT-4, read-out: IC50 in cell proliferation assay, MOLT-4 cell line) was greater than 10000 nM.
